Marks after values point to notes of the source that are not given here.
How the values were obtained:
[1] = system: db/db mice; assay: Blood glucose reducing effect in db/db mice model; type: in vivo; conditions: for Insulin in serum: 31 days, ELISA, three days after last dose, Mean±SD, n=11
Experimental: In contrast, the db/db-ND group received only the drug vehicle via subcutaneous injection. Three parallel experimental groups were established to explore the dose-dependent characteristics of BGM0504 in db/db mice: a low-dose group (0.05 mg/kg), a standard dose group (0.15 mg/kg), and a high-dose group (0.5 mg/kg), each comprising 11 db/db mice. Subsequent administrations were conducted every 3 days following the initial administration, and the experiment spanned 31 days. […] To thoroughly investigate the dose dependence of BGM0504 in db/db mice, we established additional dose groups, including a low-dose group at 0.05 mg/kg and a high-dose group at 0.5 mg/kg. Each experimental group comprised 11 db/db mice. Following the initial administration, subsequent doses were administered every 3 days, spanning a total of 31 days. Throughout this study, we meticulously observed and analyzed a spectrum of parameters encompassing changes in body weight, food intake, non-fasting blood glucose post-initial administration. In this experimental endeavor, we engaged 55 male db/db mice of SPF grade, procured at 6–8 weeks, from Zhejiang Vital River Laboratory Animal Technology Co., Ltd. The animals were divided into groups based on body weight and fasting blood glucose levels. […] The groups included the db/db-ND group, the Tirzepatide-0.15 mg/kg group, the BGM0504-0.05 mg/kg group, the BGM0504-0.15 mg/kg group, and the BGM0504-0.5 mg/kg group, each comprising 11 mice. […] Non-fasting blood glucose levels were measured at 0, 1, 2, 3, 6, 24, 48, and 72 hours post-administration. Three days after the last dose, the mice were weighed. Subsequently, a portion of non-anticoagulated whole blood was collected from the orbital venous plexus under anesthesia. Blood samples were left at room temperature for 30 minutes, then centrifuged at 5000 rpm for 5 minutes. The serum was separated and frozen at -80°C for serum insulin content testing. Serum insulin levels were measured using the enzyme-linked immunosorbent assay (ELISA) method.

[2] = in vivo; set-up: species or system SD rats; conditions: rat; for AUC(0-inf) / AUC(0-t): SD
Experimental: In this experiment, a total of 24 rats (12 of each sex) were provided by Beijing Vitong Lever Experimental Animal Technology Co., Ltd. Each animal was identified using a tail mark and had its health status confirmed by Suzhou WuXi AppTec’s veterinary team before use. The animal room was monitored for temperature and humidity, with data recorded daily to ensure that the relative humidity was maintained at 40%–70% and the temperature was between 20–26°C. The lighting adopted a 12-hour alternating light and dark mode. Regular growth feed was provided daily, and animals had ready access to water. […] Post-administration, the condition of the animals was observed and documented before and after each blood collection point. The ensemble of 24 SD rats was divided into four groups, with three specimens of each gender in each group. Animals in group 1 received a single intravenous bolus of 0.2 mg/kg BGM0504, and groups 2, 3, and 4 received a single subcutaneous injection of 0.3, 1.5, and 7.5 mg/kg BGM0504 in 20 mM citrate buffered solution (pH=7.0±0.2), respectively. Blood samples were collected for pharmacokinetic analysis at specific time points (0.5, 1, 2, 4, 8, 12, 24, 48, 72, 96, and 120 hours) before and after dosing. At the same time, blood glucose levels were measured before and at 1, 4, 8, 12, and 24 hours after dosing. The collected blood samples were transferred to labeled commercial sample tubes containing K2-EDTA, centrifuged, and plasma was retrieved; some were used for analysis, and the other part was reserved as a backup. Plasma was transferred to pre-cooled centrifuge tubes, snap-frozen in dry ice, and stored in an ultra-low temperature freezer at -60°C or lower until transported to the Drug Evaluation Department of WuXi AppTec Shanghai Drug Development Co., Ltd. for analysis.

[3] = both sexes, Sprague-Dawley, iv, 0.2 mg/kg
[4] = both sexes, Sprague-Dawley, sc, 0.3 mg/kg
[5] = both sexes, Sprague-Dawley, sc, 1.5 mg/kg
[6] = both sexes, Sprague-Dawley, sc, 7.5 mg/kg

SMILES: CC[C@H](C)[C@H](NC(=O)[C@H](CC(C)C)NC(=O)[C@H](Cc1c[nH]c2ccccc12)NC(=O)[C@H](CCC(N)=O)NC(=O)[C@@H](NC(=O)[C@H](Cc1ccccc1)NC(=O)[C@H](C)NC(=O)[C@H](CCCCN)NC(=O)[C@H](CCC(N)=O)NC(=O)[C@H](C)NC(=O)[C@@H](NC(=O)[C@H](CCCCN)NC(=O)[C@H](CC(=O)O)NC(=O)[C@H](CC(C)C)NC(=O)C(C)(C)NC(=O)[C@@H](NC(=O)[C@H](CO)NC(=O)[C@H](Cc1ccc(O)cc1)NC(=O)[C@H](CC(=O)O)NC(=O)[C@H](CO)NC(=O)[C@@H](NC(=O)[C@H](Cc1ccccc1)NC(=O)[C@@H](NC(=O)CNC(=O)[C@H](CCC(=O)O)NC(=O)C(C)(C)NC(=O)[C@@H](N)Cc1ccc(O)cc1)[C@@H](C)O)[C@@H](C)O)[C@@H](C)CC)[C@@H](C)CC)C(C)C)C(=O)N[C@@H](C)C(=O)NCC(=O)NCC(=O)N1CCC[C@H]1C(=O)N[C@@H](CO)C(=O)N[C@@H](CO)C(=O)NCC(=O)N[C@@H](C)C(=O)N1CCC[C@H]1C(=O)N1CCC[C@H]1C(=O)N1CCC[C@H]1C(=O)N[C@@H](CO)C(=O)N[C@@H](CCCCNC(=O)COCCOCCOCCNC(=O)COCCOCCOCCNC(=O)CC[C@H](NC(=O)CCCCCCCCCCCCCCCCCCC(=O)O)C(=O)O)C(N)=O [BGM0504]
- Insulin in serum ([1]; 0.05 mg/kg s.c. every 3 days): 37649.0±3597.0^a nIU/mL
- Insulin in serum ([1]; 0.15 mg/kg s.c. every 3 days): 30897.0±5634.0^a nIU/mL
- Insulin in serum ([1]; 0.5 mg/kg s.c. every 3 days): 32774.0±6290.0^a nIU/mL
- body weight and food intake ([1]; early stages of administration): acute decline in body weight and food intake
- non-fasting blood glucose within 72 h after first administration, vs db/db-ND group ([1]; s.c., Tirzepatide 0.15 mg/kg, BGM0504 0.05, 0.15, 0.5 mg/kg, n = 11): significant blood glucose suppression
- AUC(0-inf) ([2]; both sexes, iv, 0.2 mg/kg): 50000 ng·h/mL
- AUC(0-inf) ([2]; both sexes, sc, 0.3 mg/kg): 33400 ng·h/mL
- AUC(0-t) ([2]; both sexes, sc, 0.3 mg/kg): 33200 ng·h/mL
- AUC(0-inf) ([2]; both sexes, sc, 1.5 mg/kg): 154000 ng·h/mL
- AUC(0-t) ([2]; both sexes, sc, 1.5 mg/kg): 153000 ng·h/mL
- AUC(0-inf) ([2]; both sexes, sc, 7.5 mg/kg): 643000 ng·h/mL
- AUC(0-t) ([2]; both sexes, sc, 7.5 mg/kg): 637000 ng·h/mL
- C0 [2, 3]: 4650 ± 411 ng/mL
- Vd [2, 3]: 0.0648 ± 0.0058 L/kg
- clearance [2, 3]: 4.08 ± 0.618 mL/h/kg
- half-life [2, 3]: 13.6 ± 2.3 h
- Cmax [2, 4]: 814 ± 111 ng/mL
- Tmax [2, 4]: 24 h
- bioavailability [2, 4]: 44.5%
- half-life [2, 4]: 14.5 ± 1.4 h
- Cmax [2, 5]: 3830 ± 705 ng/mL
- Tmax [2, 5]: 24 h
- bioavailability [2, 5]: 41.1%
- half-life [2, 5]: 13.4 ± 1.5 h
- Cmax [2, 6]: 15100 ng/mL
- Tmax [2, 6]: 20 ± 6.2 h
- bioavailability [2, 6]: 34.3%
- half-life [2, 6]: 14.7 ± 2.4 h
- AUC0-24 ([2]; iv, 0.2 mg/kg): 38800 ng·h/mL
- AUC0-last ([2]; iv, 0.2 mg/kg): 49800 ng·h/mL
- AUC0–last (as headed in Table 1) ([2]; iv, 0.2 mg/kg): 38,800 ± 5150 ng h/mL
- AUC0–∞ (as headed in Table 1) ([2]; iv, 0.2 mg/kg): 49,800 ± 7470 ng h/mL
- AUC0-24 ([2]; sc, 0.3 mg/kg): 14100 ng·h/mL
- AUC0–last (as headed in Table 1) ([2]; sc, 0.3 mg/kg): 14,100 ± 2440 ng h/mL
- AUC0–∞ (as headed in Table 1) ([2]; sc, 0.3 mg/kg): 33,200 ± 6190 ng h/mL
- AUC0-24 ([2]; sc, 1.5 mg/kg): 63900 ng·h/mL
- AUC0–last (as headed in Table 1) ([2]; sc, 1.5 mg/kg): 63,900 ± 11,400 ng h/mL
- AUC0–∞ (as headed in Table 1) ([2]; sc, 1.5 mg/kg): 153,000 ± 27,700 ng h/mL
- AUC0-24 ([2]; sc, 7.5 mg/kg): 269000 ng·h/mL
- AUC0–last (as headed in Table 1) ([2]; sc, 7.5 mg/kg): 269,000 ± 43,000 ng h/mL
- AUC0–∞ (as headed in Table 1) ([2]; sc, 7.5 mg/kg): 637,000 ± 88,700 ng h/mL

— publication PMC11271627, “Molecular dynamics-guided optimization of BGM0504 enhances dual-target agonism for combating diabetes and obesity” (Scientific Reports, 2024)
